{
  "source": "patent US7109193B2",
  "about": "“Tricyclic diazepines tocolytic oxytocin receptor antagonists” (Wyeth, priority 2001, dated 2006)",
  "data": [
    {"target": "T1, human vasopressin V2 receptor subtype (Homo sapiens, UniProt P30518)", "T1 construct": "host or cells: CHO cells (pZeoSV vector)", "T1 sequence (P30518 whole entry)": "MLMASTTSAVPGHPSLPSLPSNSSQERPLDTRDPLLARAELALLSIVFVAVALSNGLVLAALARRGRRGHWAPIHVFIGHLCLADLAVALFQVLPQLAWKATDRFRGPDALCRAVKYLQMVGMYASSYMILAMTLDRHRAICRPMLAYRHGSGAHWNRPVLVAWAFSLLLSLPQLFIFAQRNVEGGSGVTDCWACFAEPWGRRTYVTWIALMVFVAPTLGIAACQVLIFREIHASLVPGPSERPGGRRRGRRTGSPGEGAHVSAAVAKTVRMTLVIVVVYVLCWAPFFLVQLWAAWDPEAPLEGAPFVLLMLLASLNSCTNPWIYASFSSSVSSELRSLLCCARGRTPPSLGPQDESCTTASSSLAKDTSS", "experiment": "Vasopressin binding in Chinese Hamster Ovary cell membranes expressing human vasopressin V2 subtype receptors", "conditions": "100 nM, CHO cell membranes, [3H]arginine vasopressin, values without parentheses", "summary_of_the_method": "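Radioligand displacement on membranes from CHO cells stably expressing human V2 receptor, 25 to 50 μg protein/well, in 50 mM Tris-HCl pH 7.4 with MgCl2, BSA and protease inhibitors. [^3H]arginine vasopressin (8 nM working solution) incubated 60 min at room temperature; bound label measured by filtration and scintillation counting.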", "units": {"inhibition at 0.1 µM": "%"}, "values": [
      {"smiles": "COc1cc(C(=O)N2Cc3cccn3Cc3ccccc32)ccc1-c1ccccc1C(F)(F)F", "note": "[Example 19D, (10,11-Dihydro-5H-pyrrolo[2,1-c][1,4]benzodiazepin-10-yl)-(2-methoxy-2′-trifluoromethyl-[1,1′-biphenyl]-4-yl)-methanone]", "inhibition at 0.1 µM": 84},
      {"smiles": "COc1ccccc1-c1ccc(C(=O)N2Cc3ccc(C(=O)N4CCN(C)CC4)n3Cc3ccccc32)cc1C", "note": "[Example 49, {10-[(2′-Methoxy-2-methyl[1,1′-biphenyl]-4-yl)carbonyl]-10,11-dihydro-5H-pyrrolo[2,1-c][1,4]benzodiazepin-3-yl}(4-methyl-1-piperazinyl)methanone]", "inhibition at 0.1 µM": 27},
      {"smiles": "Cc1ccccc1-c1ccc(C(=O)N2Cc3ccc(C(=O)N4CCN(C)CC4)n3Cc3ccccc32)cc1C", "note": "[Example 50, {10-[(2,2′-Dimethyl[1,1′-biphenyl]-4-yl)carbonyl]-10,11-dihydro-5H-pyrrolo[2,1-c][1,4]benzodiazepin-3-yl}(4-methyl-1-piperazinyl)methanone]", "inhibition at 0.1 µM": 15},
      {"smiles": "COc1cccc(-c2ccc(C(=O)N3Cc4ccc(C(=O)N5CCN(C)CC5)n4Cc4ccccc43)cc2C)c1", "note": "[Example 51, {10-[(3′-Methoxy-2-methyl[1,1′-biphenyl]-4-yl)carbonyl]-10,11-dihydro-5H-pyrrolo[2,1-c][1,4]benzodiazepin-3-yl}(4-methyl-1-piperazinyl)methanone]", "inhibition at 0.1 µM": 17},
      {"smiles": "Cc1ccccc1-c1ccc(C(=O)N2Cc3ccc(C(=O)N4CCN(C)CC4)n3Cc3ccccc32)cc1", "note": "[Example 52, {10-[(2′-Methyl[1,1′-biphenyl]-4-yl)carbonyl]-10,11-dihydro-5H-pyrrolo[2,1-c][1,4]benzodiazepin-3-yl}(4-methyl-1-piperazinyl)methanone]", "inhibition at 0.1 µM": 17},
      {"smiles": "COc1cc(C(=O)N2Cc3ccc(C(=O)N4CCN(C)CC4)n3Cc3ccccc32)ccc1-c1ccccc1C", "note": "[Example 53, {10-[(2-Methoxy-2′-methyl[1,1′-biphenyl]-4-yl)carbonyl]-10,11-dihydro-5H-pyrrolo[2,1-c][1,4]benzodiazepin-3-yl}(4-methyl-1-piperazinyl)methanone]", "inhibition at 0.1 µM": 23},
      {"smiles": "COc1cccc(-c2cc(OC)c(C(=O)N3Cc4ccc(C(=O)N5CCN(C)CC5)n4Cc4ccccc43)cc2Cl)c1", "note": "[Example 54, {10-[(6-Chloro-3,3′-dimethoxy[1,1′-biphenyl]-4-yl)carbonyl]-10,11-dihydro-5H-pyrrolo[2,1-c][1,4]benzodiazepin-3-yl}(4-methyl-1-piperazinyl)methanone]", "inhibition at 0.1 µM": 7},
      {"smiles": "COc1cc(C(=O)N2Cc3ccc(C(=O)N4CCN(C)CC4)n3Cc3ccccc32)ccc1-c1cccc2ccccc12", "note": "[Example 55, {10-[3-Methoxy-4-(1-naphthyl)benzoyl]-10,11-dihydro-5H-pyrrolo[2,1-c][1,4]benzodiazepin-3-yl}(4-methyl-1-piperazinyl)methanone]", "inhibition at 0.1 µM": 30},
      {"smiles": "COc1ccccc1-c1ccc(C(=O)N2Cc3ccc(C(=O)N4CCN(C)CC4)n3Cc3ccccc32)cc1OC", "note": "[Example 56, {10-[(2,2′-Dimethoxy[1,1′-biphenyl]-4-yl)carbonyl]-10,11-dihydro-5H-pyrrolo[2,1-c][1,4]benzodiazepin-3-yl}(4-methyl-1-piperazinyl)methanone]", "inhibition at 0.1 µM": 27},
      {"smiles": "COc1cccc(-c2ccc(C(=O)N3Cc4ccc(C(=O)N5CCN(C)CC5)n4Cc4ccccc43)cc2OC)c1", "note": "[Example 57, {10-[(2,3′-Dimethoxy[1,1′-biphenyl]-4-yl)carbonyl]-10,11-dihydro-5H-pyrrolo[2,1-c][1,4]benzodiazepin-3-yl}(4-methyl-1-piperazinyl)methanone]", "inhibition at 0.1 µM": 11},
      {"smiles": "CN1CCN(C(=O)c2ccc3n2Cc2ccccc2N(C(=O)c2ccc(-c4cccc5ccccc45)cc2Cl)C3)CC1", "note": "[Example 58, {10-[2-Chloro-4-(1-naphthyl)benzoyl]-10,11-dihydro-5H-pyrrolo[2,1-c][1,4]benzodiazepin-3-yl}(4-methyl-1-piperazinyl)methanone]", "inhibition at 0.1 µM": 18},
      {"smiles": "COc1ccccc1-c1ccc(C(=O)N2Cc3ccc(C(=O)N4CCCN(C)CC4)n3Cc3ccccc32)cc1C", "note": "[Example 62, {10-[(2′-Methoxy-2-methyl[1,1′-biphenyl]-4-yl)carbonyl]-10,11-dihydro-5H-pyrrolo[2,1-c][1,4]benzodiazepin-3-yl}(4-methyl-1,4-diazepan-1-yl)methanone]", "inhibition at 0.1 µM": 27},
      {"smiles": "Cc1ccccc1-c1ccc(C(=O)N2Cc3ccc(C(=O)N4CCCN(C)CC4)n3Cc3ccccc32)cc1C", "note": "[Example 63, {10-[(2,2′-Dimethyl[1,1′-biphenyl]-4-yl)carbonyl]-10,11-dihydro-5H-pyrrolo[2,1-c][1,4]benzodiazepin-3-yl}(4-methyl-1,4-diazepan-1-yl)methanone]", "inhibition at 0.1 µM": 9},
      {"smiles": "COc1cccc(-c2ccc(C(=O)N3Cc4ccc(C(=O)N5CCCN(C)CC5)n4Cc4ccccc43)cc2C)c1", "note": "[Example 64, {10-[(3′-Methoxy-2-methyl[1,1′-biphenyl]-4-yl)carbonyl]-10,11-dihydro-5H-pyrrolo[2,1-c][1,4]benzodiazepin-3-yl}(4-methyl-1,4-diazepan-1-yl)methanone]", "inhibition at 0.1 µM": 19},
      {"smiles": "Cc1ccccc1-c1ccc(C(=O)N2Cc3ccc(C(=O)N4CCCN(C)CC4)n3Cc3ccccc32)cc1", "note": "[Example 65, {10-[(2′-Methyl[1,1′-biphenyl]-4-yl)carbonyl]-10,11-dihydro-5H-pyrrolo[2,1-c][1,4]benzodiazepin-3-yl}(4-methyl-1,4-diazepan-1-yl)methanone]", "inhibition at 0.1 µM": 6},
      {"smiles": "COc1cc(C(=O)N2Cc3ccc(C(=O)N4CCCN(C)CC4)n3Cc3ccccc32)ccc1-c1ccccc1C", "note": "[Example 66, {10-[(2-Methoxy-2′-methyl[1,1′-biphenyl]-4-yl)carbonyl]-10,11-dihydro-5H-pyrrolo[2,1-c][1,4]benzodiazepin-3-yl}(4-methyl-1,4-diazepan-1-yl)methanone]", "inhibition at 0.1 µM": 20},
      {"smiles": "COc1cccc(-c2cc(OC)c(C(=O)N3Cc4ccc(C(=O)N5CCCN(C)CC5)n4Cc4ccccc43)cc2Cl)c1", "note": "[Example 67, {10-[(6-Chloro-3,3′-dimethoxy[1,1′-biphenyl]-4-yl)carbonyl]-10,11-dihydro-5H-pyrrolo[2,1-c][1,4]benzodiazepin-3-yl}(4-methyl-1,4-diazepan-1-yl)methanone]", "inhibition at 0.1 µM": 4},
      {"smiles": "COc1cc(C(=O)N2Cc3ccc(C(=O)N4CCCN(C)CC4)n3Cc3ccccc32)ccc1-c1cccc2ccccc12", "note": "[Example 68, {10-[3-Methoxy-4-(1-naphthyl)benzoyl]-10,11-dihydro-5H-pyrrolo[2,1-c][1,4]benzodiazepin-3-yl}(4-methyl-1,4-diazepan-1-yl)methanone]", "inhibition at 0.1 µM": 29},
      {"smiles": "COc1ccccc1-c1ccc(C(=O)N2Cc3ccc(C(=O)N4CCCN(C)CC4)n3Cc3ccccc32)cc1OC", "note": "[Example 69, {10-[(2,2′-Dimethoxy[1,1′-biphenyl]-4-yl)carbonyl]-10,11-dihydro-5H-pyrrolo[2,1-c][1,4]benzodiazepin-3-yl}(4-methyl-1,4-diazepan-1-yl)methanone]", "inhibition at 0.1 µM": 22},
      {"smiles": "COc1cccc(-c2ccc(C(=O)N3Cc4ccc(C(=O)N5CCCN(C)CC5)n4Cc4ccccc43)cc2OC)c1", "note": "[Example 70, {10-[(2,3′-Dimethoxy[1,1′-biphenyl]-4-yl)carbonyl]-10,11-dihydro-5H-pyrrolo[2,1-c][1,4]benzodiazepin-3-yl}(4-methyl-1,4-diazepan-1-yl)methanone]", "inhibition at 0.1 µM": 11},
      {"smiles": "CN1CCCN(C(=O)c2ccc3n2Cc2ccccc2N(C(=O)c2ccc(-c4cccc5ccccc45)cc2Cl)C3)CC1", "note": "[Example 71, {10-[2-Chloro-4-(1-naphthyl)benzoyl]-10,11-dihydro-5H-pyrrolo[2,1-c][1,4]benzodiazepin-3-yl}(4-methyl-1,4-diazepan-1-yl)methanone]", "inhibition at 0.1 µM": 13},
      {"smiles": "COc1ccccc1-c1ccc(C(=O)N2Cc3ccc(C(=O)NCCCN(C)C)n3Cc3ccccc32)cc1C", "note": "[Example 72, N-[3-(Dimethylamino)propyl]-10-[(2′-methoxy-2-methyl[1,1′-biphenyl]-4-yl)carbonyl]-10,11-dihydro-5H-pyrrolo[2,1-c][1,4]benzodiazepine-3-carboxamide]", "inhibition at 0.1 µM": 26},
      {"smiles": "Cc1ccccc1-c1ccc(C(=O)N2Cc3ccc(C(=O)NCCCN(C)C)n3Cc3ccccc32)cc1C", "note": "[Example 73, N-[3-(Dimethylamino)propyl]-10-[(2,2′-dimethyl[1,1′-biphenyl]-4-yl)carbonyl]-10,11-dihydro-5H-pyrrolo[2,1-c][1,4]benzodiazepine-3-carboxamide]", "inhibition at 0.1 µM": 21},
      {"smiles": "COc1cccc(-c2ccc(C(=O)N3Cc4ccc(C(=O)NCCCN(C)C)n4Cc4ccccc43)cc2C)c1", "note": "[Example 74, N-[3-(Dimethylamino)propyl]-10-[(3′-methoxy-2-methyl[1,1′-biphenyl]-4-yl)carbonyl]-10,11-dihydro-5H-pyrrolo[2,1-c][1,4]benzodiazepine-3-carboxamide]", "inhibition at 0.1 µM": 14},
      {"smiles": "COc1ccccc1-c1ccc(C(=O)N2Cc3ccc(C(=O)NCCCN(C)C)n3Cc3ccccc32)cc1", "note": "[Example 75, N-[3-(Dimethylamino)propyl]-10-[(2′-methoxy[1,1′-biphenyl]-4-yl)carbonyl]-10,11-dihydro-5H-pyrrolo[2,1-c][1,4]benzodiazepine-3-carboxamide]", "inhibition at 0.1 µM": 14},
      {"smiles": "Cc1ccccc1-c1ccc(C(=O)N2Cc3ccc(C(=O)NCCCN(C)C)n3Cc3ccccc32)cc1", "note": "[Example 76, N-[3-(Dimethylamino)propyl]-10-[(2′-methyl[1,1′-biphenyl]-4-yl)carbonyl]-10,11-dihydro-5H-pyrrolo[2,1-c][1,4]benzodiazepine-3-carboxamide]", "inhibition at 0.1 µM": 17},
      {"smiles": "COc1cc(C(=O)N2Cc3ccc(C(=O)NCCCN(C)C)n3Cc3ccccc32)ccc1-c1ccccc1C", "note": "[Example 77, N-[3-(Dimethylamino)propyl]-10-[(2-methoxy-2′-methyl[1,1′-biphenyl]-4-yl)carbonyl]-10,11-dihydro-5H-pyrrolo[2,1-c][1,4]benzodiazepine-3-carboxamide]", "inhibition at 0.1 µM": 28}
    ]}
  ]
}
